Data on 4 compounds can be found in patent US9925263B2, “Liquid pharmaceutical formulations for injection comprising procaine and uses thereof” (EAGLE BIOLOGICS, INC., priority 2013, dated 2018).

Structures can show the parent of a compound that is named as a salt. Where two headings read alike, the source gives them in different places.

One data set has as its system branded ERBITUX®. The data set can be described thus: Viscosity of aqueous solutions of branded ERBITUX®. The class given is physicochemical. To be noted: 224 ± 4 mg/mL mAb; phosphate buffer or 0.25M BSAA; 25° C., pH 7.0. An excerpt: (§1) (unless otherwise indicated).
For the next data set, the system named is biosimilar AVASTIN®. The data set can be described thus: Viscosity of aqueous solutions of biosimilar AVASTIN® with viscosity-lowering agents. The class given is physicochemical. To be noted: for Magnitude of viscosity-lowering effect (replacement of PB with CSAL): 0.25 M.
The subject of the next data set is TYSABRI®. The data set can be described thus: Viscosity of aqueous solutions of TYSABRI® with viscosity-lowering agents. The class given is physicochemical. Conditions: 25° C.
For the next data set, the system named is HERCEPTIN®. The data set can be described thus: Viscosity of aqueous solutions of HERCEPTIN® with viscosity-lowering agents. Format: physicochemical. Conditions: 25° C.
Another data set relates to REMICADE®. The data set can be described thus: Viscosity of aqueous solutions of […]® with viscosity-lowering agents. Format: physicochemical. Conditions: 25° C. As for the experimental part:
as §1
An extrapolated zero-shear viscosity was determined from a plot of absolute viscosity versus shear rate.
Following reconstitution, the viscosity of each solution was measured using the microfluidic viscometer as described in previous examples. The solutions were then back-loaded into 1 mL BD insulin syringes with 27, 29, or 31 gauge fixed needles. The force required to extrude the concentrated […]® solutions was then measured using an Instron at a rate of displacement equivalent to a fluid flow rate of 3 mL/min. The expelled solution was collected from the syringe and analyzed by size-exclusion chromatography.

A further data set relates to biosimilar ERBITUX®. The data set can be described thus: Viscosity of aqueous solutions of biosimilar ERBITUX® with viscosity-lowering agents. Conditions: for Fold Reduction: vs phosphate buffer.
The subject of data set [1] is biosimilar AVASTIN®, TYSABRI®, HERCEPTIN®, biosimilar ERBITUX®, REMICADE®. To be noted: thiamine HCl 0.1-0.25 M vs 0.25 M PB; Table 33.
Protocol: (§2) All viscosities of well-mixed aqueous mAb solutions were measured using either a mVROC microfluidic viscometer (RheoSense) or a DV2T cone and plate viscometer (Brookfield; “C & P”) after a 5 minute equilibration at 25° C. […] The mVROC viscometer was equipped with an “A” or “B” chip, each manufactured with a 50 micron channel. Typically, 0.10 mL of protein solution was back-loaded into a gastight microlab instrument syringe (Hamilton; 100 μL), affixed to the chip, and measured at multiple flow rates, approximately 20%, 40%, and 60% of the maximum pressure for each chip. […] An average absolute viscosity and standard deviation was then calculated from at least these three measurements. The C & P viscometer was equipped with a CPE40 or CPE52 spindle (cone angle of 0.8° and 3.0°, respectively) and 0.50 mL samples were measured at multiple shear rates between 2 and 400 s^−1. Specifically, samples were measured for 30 seconds each at 22.58, 24.38, 26.25, 28.13, 30, 31.88, 45, 67.5, 90, 112.5, 135, 157.5, 180, 202.5, 247, 270, 292.5, 315, 337.5, 360, 382, 400 s^−1, starting at a shear rate that gave at least 10% torque, and continuing until instrument torque reached 100%. An extrapolated zero-shear viscosity was then determined from a plot of dynamic viscosity versus shear rate for the samples measured on a DV2T cone and plate viscometer. […]
The next data set has as its system SIMPONI ARIA®. To be noted: […] thiamine HCl vs […] phosphate buffer; FIG. 9.
The test system of data set [2] is Crohn's and ulcerative colitis patients. Conditions: studies evaluating long-term clinical outcomes; cited from earlier work.
A further data set relates to branded AVASTIN®. The data set can be described thus: Viscosity of aqueous solutions of branded AVASTIN®. Format: physicochemical. Conditions: 205 ± 5 mg/mL mAb. As for the experimental part: as §1
Subsequently, the appropriate amount of viscosity-lowering agent was added to result in a final viscosity-lowering agent concentration of 0.15-0.35 M upon reconstitution.

For a further data set, the system named is bovine gamma globulin. The data set can be described thus: Viscosity of aqueous gamma globulin solutions on two viscometers. The class given is physicochemical. Conditions: without CSAL, or with 0.25M CSAL (label CSAL), 25° C., pH 7.0. How it is done:
as §1
Aqueous solutions containing 220 mg/mL […]® and 0.25 M CSAA were prepared as described above Example 1. The viscosities at 25° C. and pH 7.0 are reported in Table 29 as extrapolated zero-shear viscosities from cone and plate viscometer measurements and as absolute viscosities measured with a microfluidic viscometer. […] An extrapolated zero-shear viscosity was determined from a plot of absolute viscosity versus shear rate.
In order to compare a broader range of viscosities and protein concentrations, aqueous solutions of a model antibody, bovine gamma globulin, were prepared with and without 0.25 M CSAL. The viscosities were measured as described above at protein concentrations ranging from 110 mg/mL to 310 mg/mL.

Where [3] appears, read: 200 ± 5 mg/mL mAb, pH 7.0, 25° C., [Salt] 0.25 M of anion, C & P viscometer.
Where [4] appears, read: 166 ± 4 mg/mL REMICADE, 0.25M agent, pH 7.0.
The mark [5] stands for this setting: 222 ± 6 mg/mL REMICADE, 0.25M agent, pH 7.0.
[6] abbreviates: 222 ± 5 mg/mL mAb, pH 7.0, 0.25M agent, 25° C.
The mark [7] stands for this setting: 225 ± 5 mg/mL mAb, pH 7.0, 0.25M agent, 20° C.
[8] abbreviates: 225 ± 5 mg/mL mAb, pH 7.0, 0.25M agent, 25° C.
Where [9] appears, read: 225 ± 5 mg/mL mAb, pH 7.0, 0.25M agent, 30° C.
[10] abbreviates: 155 ± 5 mg/mL mAb, pH 7.0, 25° C., [CSAL] 0.25 M.
[11] abbreviates: 155 ± 5 mg/mL mAb, pH 7.0, 25° C., [CSAL] 0.38 M.
The mark [12] stands for this setting: 155 ± 5 mg/mL mAb, pH 7.0, 25° C., [CSAL] 0.50 M.

Protocol for ENBREL®: All viscosities of well-mixed aqueous mAb solutions were measured using either a mVROC microfluidic viscometer (RheoSense) or a DV2T cone and plate viscometer (Brookfield; “C & P”) after a 5 minute equilibration at 25° C. […] The mVROC viscometer was equipped with an “A” or “B” chip, each manufactured with a 50 micron channel. Typically, 0.10 mL of protein solution was back-loaded into a gastight microlab instrument syringe (Hamilton; 100 μL), affixed to the chip, and measured at multiple flow rates, approximately 20%, 40%, and 60% of the maximum pressure for each chip. […] An average absolute viscosity and standard deviation was then calculated from at least these three measurements. The C & P viscometer was equipped with a CPE40 or CPE52 spindle (cone angle of 0.8° and 3.0°, respectively) and 0.50 mL samples were measured at multiple shear rates between 2 and 400 s^−1. Specifically, samples were measured for 30 seconds each at 22.58, 24.38, 26.25, 28.13, 30, 31.88, 45, 67.5, 90, 112.5, 135, 157.5, 180, 202.5, 247, 270, 292.5, 315, 337.5, 360, 382, 400 s^−1, starting at a shear rate that gave at least 10% torque, and continuing until instrument torque reached 100%. An extrapolated zero-shear viscosity was then determined from a plot of dynamic viscosity versus shear rate for the samples measured on a DV2T cone and plate viscometer. The extrapolated zero-shear viscosities reported are the average and standard deviation of at least three measurements.
ENBREL® obtained commercially and containing pharmaceutical excipients (Mannitol, Sucrose, Tromethamine) was purified, buffer exchanged, concentrated, dried, reconstituted, and analyzed as described in Example 1 above (using the extinction coefficient of 0.96 L/g·cm at 280 nm).
Protocol for SIMPONI ARIA®: as §2

For the compound `N=C(N)NCCC[C@H](N)C(=O)O.O=S(=O)(O)c1ccccc1` [BSAA, benzenesulfonic acid arginine], the “Branded ERBITUX ® viscosity” value in the data set on branded ERBITUX® came to 44.1 ± 0.5 cP. Moreover, the Viscosity in the data set with biosimilar AVASTIN® (setting [3]) turned out to be 75.3 ± 0.4 cP; in the data set on TYSABRI® (230 ± 2 mg/mL TYSABRI, 0.25M agent, pH 7.0), 34.9 ± 1.3 cP; in the data set on HERCEPTIN® (254 ± 3 mg/mL HERCEPTIN, 0.25M salt, pH 7.0), 75.4 ± 5.0 cP; in the data set with HERCEPTIN® (270 ± 6 mg/mL HERCEPTIN, 0.25M salt, pH 7.0), 115 ± 6 cP; in the data set with REMICADE® (setting [4]) it was 26.7 ± 1.2 cP; in the data set on REMICADE® (setting [5]) it was 92.3 ± 1.4 cP. Further, the Viscosity in the data set with biosimilar ERBITUX® (setting [6]) is recorded as 53.4 ± 5.5 cP; in the data set on biosimilar ERBITUX® (setting [7]), 85.2 ± 0.6 cP; in the data set with biosimilar ERBITUX® (setting [8]) it was 61.3 ± 0.9 cP; in the data set on biosimilar ERBITUX® (setting [9]), 50.5 ± 1.9 cP. In addition, in the data set on biosimilar ERBITUX® (224 ± 4 mg/mL mAb, phosphate buffer or 0.25M BSAA, 25° C., pH 7.0), the “Biosimilar ERBITUX ® viscosity” value was 53.4 ± 5.5 cP. Also, the “Fold Reduction” value with biosimilar ERBITUX® (setting [6]) is recorded as ~21 fold; with biosimilar ERBITUX® (222 ± 5 mg/mL mAb, pH 7.0, 0.25M agent, 25° C., listed as BSA Arginine), 21.2 fold.

As to `Cc1ncc(C[n+]2csc(CCO)c2C)c(N)n1` [Thiamine HCl], the Viscosity with biosimilar AVASTIN® (190 mg/mL mAb, excipient 0.1 M, 25° C.) was determined as 31.5 ± 1.7 cP; in the data set with biosimilar AVASTIN® (225 mg/mL mAb, excipient 0.25 M, 25° C.), 53.3 ± 6.8 cP; with ENBREL® (212 ± 7 mg/mL ENBREL), 141 ± 3; in the data set on ENBREL® (250 ± 3 mg/mL ENBREL), 305 ± 7; in the data set on ENBREL® (271 ± 0 mg/mL ENBREL), 626 ± 32; with TYSABRI® (244 mg/mL TYSABRI, excipient 0.1 M) it was 43.4 ± 0.7 cP. In addition, the Viscosity in the data set with HERCEPTIN® (218 mg/mL HERCEPTIN, excipient 0.1 M) came out at 41.6 ± 0.5 cP; in the data set on HERCEPTIN® (245 mg/mL HERCEPTIN, 0.10M agent), 41.5 ± 0.5 cP; in the data set on REMICADE® (178 mg/mL REMICADE, excipient […]), 40.7 ± 0.3 cP. In addition, in the data set with ENBREL® ([…] thiamine HCl vs […] PB), the Viscosity reduction entry is “up to 2 fold”. Moreover, the “Viscosity reduction for each mAb” value in data set [1] was “greater than 4 fold”. The “Viscosity gradient (increase in viscosity with mAb concentration)” value in the data set with SIMPONI ARIA® is on record as “the viscosity gradient is reduced”.

In the case of “Vedolizumab: mAb being developed by Millennium Pharmaceuticals for ulcerative colitis and Crohn's disease”, the “Patients achieving clinical remission” value in [2] is reported as ~60%.

For camphorsulfonic acid lysine [CSAL], the “Fold reduction in viscosity” value in the data set on branded AVASTIN® (0.25 M CSAL vs phosphate buffer) stood at 3.3 fold; in the data set with biosimilar AVASTIN® (0.25 M CSAL vs phosphate buffer, 205 ± 5 mg/mL mAb), 1.8 fold. The “Viscosity, Branded AVASTIN ®” value in the data set with branded AVASTIN® (phosphate buffer or 0.25M CSAL, 25° C., pH 7.0) is given as 46.7 ± 0.9 cP. Moreover, the “Magnitude of viscosity-lowering effect (replacement of PB with CSAL)” value in the data set on biosimilar AVASTIN® (80 mg/mL mAb, 25° C., pH 7.0) stood at 2.1 fold; in the data set on biosimilar AVASTIN® (230±5 mg/mL mAb, 25° C., pH 7.0) it was 3.7 fold; in the data set on biosimilar ERBITUX® (100±5 mg/mL mAb, 0.25 M, 25° C., pH 7.0), 1.1 fold; with biosimilar ERBITUX® (pH 7), 10.3 fold. Besides, the Viscosity turned out to be 63.0 ± 1.8 cP in the data set on biosimilar AVASTIN® (210 mg/mL mAb, 0.25 M agent, 25° C., pH 7.0); 4.03 ± 0.24 cP in the data set on biosimilar AVASTIN® (101 ± 5 mg/mL mAb, pH 7.0, 25° C., formulation per label (CSAL 0.25M)); 54.9 ± 0.9 cP with biosimilar AVASTIN® (setting [3]); 113 ± 0 cP with biosimilar AVASTIN® (228 ± 5 mg/mL mAb, agent 0.25 M, 25° C., pH 7.0); 152 ± 0 cP in the data set on biosimilar AVASTIN® (230 ± 5 mg/mL mAb, pH 7.0, 0.25M, 20° C.); 107 ± 4 cP in the data set on biosimilar AVASTIN® (230 ± 5 mg/mL mAb, pH 7.0, 0.25M, 25° C.). In addition, the Viscosity was found to be 95.5 ± 5.4 cP in the data set with biosimilar AVASTIN® (230 ± 5 mg/mL mAb, pH 7.0, 0.25M, 30° C.); 157 ± 0 cP in the data set with biosimilar AVASTIN® (230 ± 5 mg/mL mAb, pH 7.0, […], 20° C.); 113 ± 0 cP in the data set with biosimilar AVASTIN® (230 ± 5 mg/mL mAb, pH 7.0, […], 25° C.); 91.7 ± 3.3 cP with biosimilar AVASTIN® (230 ± 5 mg/mL mAb, pH 7.0, […], 30° C.); 10.3 ± 1.0 cP with bovine gamma globulin (170 mg/mL gamma globulin, C & P); 10.6 ± 0.1 cP with bovine gamma globulin (170 mg/mL gamma globulin, microfluidic). The Viscosity with bovine gamma globulin (260 mg/mL gamma globulin, C & P) is on record as 93.5 ± 1.2 cP; in the data set on bovine gamma globulin (260 mg/mL gamma globulin, microfluidic), 85.3 ± 0.3 cP; in the data set with bovine gamma globulin (310 mg/mL gamma globulin, C & P) it was 223 ± 1 cP; in the data set with bovine gamma globulin (310 mg/mL gamma globulin, microfluidic), 203 ± 2 cP; with REMICADE® (setting [4]) it was 27.4 ± 0.2 cP; in the data set on REMICADE® (setting [5]), 95.3 ± 1.1 cP. Besides, the Viscosity with biosimilar ERBITUX® (80 ± 5 mg/mL mAb, pH 7.0, 25° C., formulation per label (CSAL 0.25M)) amounted to 3.08 ± 0.18 cP; in the data set with biosimilar ERBITUX® (155 ± 5 mg/mL mAb, pH 7.0, 25° C., [CSAL] 0 M (0.25 M phosphate buffer control)) it was 154 ± 0 cP; with biosimilar ERBITUX® (setting [10]), 18.3 ± 0.0 cP; in the data set with biosimilar ERBITUX® (setting [11]), 14.9 ± 0.1 cP; in the data set with biosimilar ERBITUX® (setting [12]), 12.7 ± 0.1 cP; with biosimilar ERBITUX® (setting [6]), 109 ± 1 cP. Besides, the Viscosity came to 166 ± 2 cP in the data set with biosimilar ERBITUX® (setting [7]), 109 ± 1 cP with biosimilar ERBITUX® (setting [8]) and 78.4 ± 1.5 cP in the data set with biosimilar ERBITUX® (setting [9]). Further, the “Fold decrease in viscosity in the presence of CSAL” value came out at 1.5 fold in the data set on biosimilar AVASTIN® (0.25 M CSAL vs original excipients, 101 ± 5 mg/mL mAb, pH 7.0, 25° C.) and 2.7 fold in the data set with biosimilar ERBITUX® (0.25 M CSAL vs original excipients, 80 ± 5 mg/mL mAb, pH 7.0, 25° C.). In addition, the “Viscosity, Biosimilar AVASTIN ®” value in the data set with biosimilar AVASTIN® (205 ± 5 mg/mL mAb, phosphate buffer or 0.25M CSAL, 25° C., pH 7.0) is on record as 54.9 ± 0.9 cP. The “Fold viscosity reduction (compared to no CSAL present)” value in the data set with biosimilar ERBITUX® (155 ± 5 mg/mL mAb, pH 7.0, 25° C., [CSAL] 0 M) was 1 fold; in the data set with biosimilar ERBITUX® (setting [10]) it was 8.4 fold; in the data set on biosimilar ERBITUX® (setting [11]), 10.3 fold; with biosimilar ERBITUX® (setting [12]), 12.1 fold. Besides, in the data set with biosimilar ERBITUX® (setting [6]), the “Fold Reduction” value is given as 10.4 fold.
